Measured values: patent US11578087B2, “Oxaborole esters and uses thereof” (priority 2016, dated 2023)

Legend:
[1] = tested on: IL3000 T. congolense (drug sensitive) strain; test: In vitro Alamar Blue 72 h drug sensitivity assay for T. congolense; type: cell-based, Trypanosoma congolense; details: Trypanosoma congolense, 72 h, bloodstream form, 69 h + 3 h Resazurin, 34° C., read-out: IC50: I Org. Growth T. congolense 3 d
How it was run: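 IC50 values derive from 11-point curves averaged over at least three independent runs, with fluorescence read at 536 nm excitation and 588 nm emission. Resazurin was added for a final 3 h after 69 h compound exposure of bloodstream forms (HMI medium, 20% bovine serum, 34° C, 5% CO2).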

[2] = tested on: T. cruzi amastigote (Td Tomato-modified) in Vero cells; test: In vitro IC50 measurement of T. cruzi amastigote killing using Td Tomato-modified T. cruzi; type: cell-based; details: Trypanosoma cruzi, 72 h, fluorescence, read-out: IC50: I Org. amastigote Growth T. cruzi 3 d
How it was run: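 IC50/IC90 came from nonlinear regression of Day 3 minus Day 0 fluorescence (544/612 nm), correcting for input parasites. Final compound concentrations spanned 5 nM–5 uM on Td Tomato T. cruzi-infected Vero cells, 72 h at 37 °C.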

`Cc1c(C(=O)N[C@H](C(=O)OCCN2CC(C)OC(C)C2)C(C)C)ccc2c1B(O)OC2` (stereo partly drawn) [Example 6-206, 2-(2,6-dimethylmorpholino)ethyl (1-hydroxy-7-methyl-1,3-dihydrobenzo[c][1,2]oxaborole-6-carbonyl)-L-valinate] was tested, and the IC50 [1] was less than 0.5 nM and the IC50 [2] was 21 to 999 nM.
`Cc1c(C(=O)N[C@H](C(=O)OCc2ccccc2)C(C)C)ccc2c1B(O)OC2` [Example 6-038, Benzyl (1-hydroxy-7-methyl-1,3-dihydrobenzo[c][1,2]oxaborole-6-carbonyl)-L-valinate] was tested, and the IC50 [1] was less than 0.5 nM and the IC50 [2] was no more than 20 nM.
For `Cc1c(C(=O)N[C@H](C(=O)OCc2cccc(N3CCN(C)CC3)c2)C(C)C)ccc2c1B(O)OC2` [Example 6-072, 3-(4-Methylpiperazin-1-yl)benzyl (1-hydroxy-7-methyl-1,3-dihydrobenzo[c][1,2]oxaborole-6-carbonyl)-L-valinate], the IC50 [1] was less than 0.5 nM and the IC50 [2] was no more than 20 nM.
Work on `Cc1c(C(=O)N[C@H](C(=O)OCc2ccc3ccccc3n2)C(C)C)ccc2c1B(O)OC2` [Example 6-125, Quinolin-2-ylmethyl (1-hydroxy-7-methyl-1,3-dihydrobenzo[c][1,2]oxaborole-6-carbonyl)-L-valinate] yielded an IC50 [1] of less than 0.5 nM and an IC50 [2] of 21 to 999 nM.
`COC(=O)[C@@H](NC(=O)c1ccc2c(c1C)B(O)OC2)C(C)C` [Example 6-069, Methyl (1-hydroxy-7-methyl-1,3-dihydrobenzo[c][1,2]oxaborole-6-carbonyl)-L-valinate] gave an IC50 [1] of 0.51 to 9.99 nM and an IC50 [2] of 21 to 999 nM.
`Cc1c(C(=O)N[C@H](C(=O)OC(C)C)C(C)C)ccc2c1B(O)OC2` [Example 6-112, Isopropyl (1-hydroxy-7-methyl-1,3-dihydrobenzo[c][1,2]oxaborole-6-carbonyl)-L-valinate] was tested, and the IC50 [1] was 0.51 to 9.99 nM and the IC50 [2] was no more than 20 nM.
`CCOc1c(C(=O)N[C@H](C(=O)OCc2ccc(F)cc2)C(C)C)ccc2c1B(O)OC2` [Example 6-196, 4-Fluorobenzyl (7-ethoxy-1-hydroxy-1,3-dihydrobenzo[c][1,2]oxaborole-6-carbonyl)-L-valinate] gave an IC50 [1] of 0.51 to 9.99 nM and an IC50 [2] of no less than 1000 nM.
`Cc1c(C(=O)N[C@H](C(=O)OC[C@H]2COC(C)(C)O2)C(C)C)ccc2c1B(O)OC2` [Example 6-144, ((R)-2,2-Dimethyl-1,3-dioxolan-4-yl)methyl (1-hydroxy-7-methyl-1,3-dihydrobenzo[c][1,2]oxaborole-6-carbonyl)-L-valinate] was tested, and the IC50 [1] was 0.51 to 9.99 nM and the IC50 [2] was no more than 20 nM.
`Cc1c(C(=O)N[C@H](C(=O)OCc2ccc(F)cc2)C(C)C)ccc2c1B(O)OC2C` (stereo partly drawn) [Example 6-061, 4-Fluorobenzyl (3,7-dimethyl-1-hydroxy-1,3-dihydrobenzo[c][1,2]oxaborole-6-carbonyl)-L-valinate] showed an IC50 [1] of 0.51 to 9.99 nM and an IC50 [2] of 21 to 999 nM.
Compound `Cc1c(C(=O)N[C@H](C(=O)OCc2ccc(S(=O)(=O)N3CCN(C)CC3)cc2)C(C)C)ccc2c1B(O)OC2` [Example 6-085, 4-((4-Methylpiperazin-1-yl)sulfonyl)benzyl (1-hydroxy-7-methyl-1,3-dihydrobenzo[c][1,2]oxaborole-6-carbonyl)-L-valinate] has an IC50 [1] of 0.51 to 9.99 nM and an IC50 [2] of 21 to 999 nM.
With `CC(C)[C@H](NC(=O)c1ccc2c(c1F)B(O)OC2)C(=O)OCc1ccccc1` [Example 6-035, Benzyl (7-fluoro-1-hydroxy-1,3-dihydrobenzo[c][1,2]oxaborole-6-carbonyl)-L-valinate] the IC50 [1] was 10 to 5000 nM and the IC50 [2] was no less than 1000 nM.
Work on `Cc1c(C(=O)N[C@H](C(=O)OCc2ccc(F)cc2)C(C)(C)O)ccc2c1B(O)OC2` [Example 6-169, 4-Fluorobenzyl (S)-3-hydroxy-2-(1-hydroxy-7-methyl-1,3-dihydrobenzo[c][1,2]oxaborole-6-carboxamido)-3-methylbutanoate] yielded an IC50 [1] of less than 0.5 nM and an IC50 [2] of no more than 20 nM.
Work on `Cc1c(C(=O)N[C@H](C(=O)OCc2ccc(OCCN3CCCC3)c(Cl)c2)C(C)C)ccc2c1B(O)OC2` [Example 6-243, 3-Chloro-4-(2-(pyrrolidin-1-yl)ethoxy)benzyl (1-hydroxy-7-methyl-1,3-dihydrobenzo[c][1,2]oxaborole-6-carbonyl)-L-valinate] yielded an IC50 [1] of 0.51 to 9.99 nM and an IC50 [2] of 21 to 999 nM.
